Data set [1] has as its system PAO200 P. aeruginosa bacteria, the MexAB-OprM efflux pump minus strain of PAO1. Briefly: microbe, parasite or virus in culture. The class given is cell-based. The conditions noted are these: Pseudomonas aeruginosa, PAO1, read-out: PAO200 IC50 (μM).
For the next data set, the system named is PAO1. Briefly: microbe, parasite or virus in culture. It counts as cell-based. The conditions noted are these: Pseudomonas aeruginosa, PAO1, read-out: PAO01 IC50 (μM).
Data set [2] relates to E. coli W3110 a TolC::Tn10 inclusive strain. The data set is described as follows: microbe, parasite or virus in culture. The class given is cell-based. The following applies: Escherichia coli, read-out: W3110 IC50 (μM).
For data set [3], the system named is NRS135 gram-positive S. aureus strain expressing NorA::tetM. The data set is described as follows: microbe, parasite or virus in culture. It counts as cell-based. The following applies: Staphylococcus aureus, NRS135, read-out: NRS135 IC50 (μM).
Another data set is described as follows: in vitro. The conditions noted are these: human, wild-type HepG2 cells (ATCC).

In general, IC50 refers to the concentration that gives 50% inhibition. In general, CC50 refers to the concentration at which the toxic effect on the cells reaches its halfway point. A high value points to lower toxicity to the cells.

For `O=[N+]([O-])c1c(Nc2ccccc2)cc(Cl)c2nonc12` [Compound 2], the IC50 was found to be 1.3 µM in data set [1], 18 µM in the data set with PAO1, 15.2 µM in data set [2] and 2.47 µM in data set [3]. The compound further displayed a cytotoxic concentration (CC50) in the data set “in vitro” greater than 20 µM.

As to `CNc1cc(Cl)c2nonc2c1[N+](=O)[O-]` [Compound 3], the CC50 in the data set “in vitro” was greater than 25.4 µM.

Consider `Cc1ccc(Nc2nc3nonc3nc2NC(C)C)cc1C` [Compound 4], for which the half-inhibitory concentration (IC50) in data set [1] is 24.7 µM; with PAO1 it was no less than 55 µM; in data set [2], 6.29 µM; in data set [3], 26.5 µM. The compound further registered a CC50 in “in vitro” of 11.4 µM.

For `Cc1c(Nc2nc3nonc3nc2Nc2ccc(F)cc2)c(=O)n(-c2ccccc2)n1C` [Compound 5], the half-maximal inhibitory concentration (IC50) in data set [1] worked out at 39.2 µM; in the data set with PAO1, 42 µM; in data set [2], 3.77 µM; in data set [3] it was 9.37 µM. In the data set “in vitro”, it took 20.6 µM to reach half-maximal cytotoxicity (CC50).

For `N#Cc1cccc(NC(=O)Nc2cccc(Cl)c2)c1` [Compound 6], the IC50 was 24.7 µM in data set [1], 55 µM in the data set with PAO1, 5.99 µM in data set [2] and 19.8 µM in data set [3]. Further, in the data set “in vitro”, it took 21.1 µM to reach half-maximal cytotoxicity (CC50).

In the case of `N#Cc1ccc(NC(=O)Nc2cccc(Cl)c2)cc1` [Compound 7], the IC50 in data set [1] was 24.7 µM; with PAO1, no less than 55 µM; in data set [2] it was 3.82 µM; in data set [3] it was 9.77 µM. The compound also gave a cytotoxic concentration (CC50) in the data set “in vitro” of 23.8 µM.

Turning to `O=C(Nc1ccc([N+](=O)[O-])cc1)NC(C(F)(F)F)C(F)(F)F` [Compound 8], the IC50 in data set [1] came to 31.5 µM; in the data set with PAO1, 39.5 µM; in data set [2], 8.89 µM; in data set [3] it was 18.1 µM.

As for `O=S(=O)(Nc1nccs1)c1ccc(NC(=S)Nc2ccccc2)cc1` [Compound 9], the concentration for half-maximal inhibition (IC50) in data set [1] was 12.3 µM; with PAO1 it was no less than 55 µM; in data set [2] it was 3.8 µM; in data set [3], 21.9 µM. The CC50 in the data set “in vitro” was greater than 24.8 µM.

For `O=S(=O)(Nc1nccs1)c1ccc(NC(=S)Nc2ccc(F)cc2)cc1` [Compound 10], the IC50 is 12.5 µM in data set [1], no less than 55 µM in the data set on PAO1, 4 µM in data set [2] and 17.5 µM in data set [3]. Moreover, the cytotoxic concentration (CC50) in the data set “in vitro” is greater than 24.8 µM.

In the case of `Cc1cc(F)ccc1NC(=S)Nc1ccc(S(=O)(=O)Nc2ncccn2)cc1` [Compound 11], the IC50 in data set [1] was 28.2 µM; with PAO1 it was no less than 55 µM; in data set [2], 7.08 µM; in data set [3] it was no less than 55 µM. The 50% cytotoxic concentration (CC50) in “in vitro” is greater than 24.8 µM.

For `O=C(Nc1ccc(N2CCOCC2)cc1)c1cccc(-n2cc(Nc3nnnn3C3CCCCC3)cn2)c1` [Compound 12], the 50% inhibitory concentration (IC50) in data set [1] worked out at 22.3 µM; with PAO1, 103 µM; in data set [2], 29.1 µM; in data set [3], 38.7 µM.

Take `COc1cc(NC(=O)c2cccc(-n3cc(Nc4nnnn4-c4ccccc4)cn3)c2)ccc1N1CCOCC1` [Compound 13]: the concentration for half-maximal inhibition (IC50) in data set [1] was 13.9 µM; in the data set on PAO1 it was 95.7 µM; in data set [2], 8.71 µM; in data set [3], 15.6 µM.

For the compound `CCOC(=O)c1cccc(-n2cc(Nc3nnnn3-c3ccccc3)cn2)c1` [Compound 14], the IC50 in data set [1] was 20.5 µM; in the data set on PAO1 it was no less than 55 µM; in data set [2], 14.6 µM; in data set [3], 43.6 µM. Besides, the CC50 in the data set “in vitro” was greater than 24.8 µM.

On to `O=C(CCn1cnc2ccccc2c1=O)Nc1cccc(Cl)c1` [Compound 15], for which the half-maximal inhibitory concentration (IC50) in data set [1] came out at 2.7 µM; with PAO1, 38.6 µM; in data set [2], 0.873 µM; in data set [3], 47.4 µM. This compound also had a CC50 in the data set “in vitro” greater than 24.8 µM.

In the case of `c1ccc(CNc2ncnc3c2[nH]c2ccccc23)cc1` [Compound 16], the IC50 was 41.5 µM in data set [1], no less than 55 µM with PAO1, 15.9 µM in data set [2] and no less than 55 µM in data set [3]. The half-maximal cytotoxic concentration (CC50) in “in vitro” was greater than 24.8 µM.

Turning to `COc1cccc(CN2CCC3(CC2)NCCc2c3[nH]c3ccccc23)c1` [Compound 17], the IC50 in data set [1] is 39 µM; with PAO1 it was 28.2 µM; in data set [2] it was 47.4 µM; in data set [3] it was no less than 55 µM. The CC50 in “in vitro” was greater than 24.8 µM.
